Assay results: patent US20100267798A1, “PHARMACEUTICAL FORMULATIONS AND USE THEREOF IN THE PREVENTION OF STROKE, DIABETES AND/OR CONGESTIVE HEART FAILURE” (AVENTS PHARMA DEUTSCHLAND GMBH, priority 1999, published 2010)

System: participants at high risk for cardiovascular events
Test: Large-scale clinical trial of ramipril versus placebo in reducing cardiovascular events
Type: in vivo, human
Protocol: A large-scale clinical trial was designed to examine the effect of the ACE inhibitor ramipril versus placebo in reducing cardiovascular events.
The study was conducted in 267 centres in 19 countries over a six year period and included 9,541 participants who are at high risk for cardiovascular events due to a history of previous ischaemic heart disease, stroke, peripheral arterial disease or individuals with diabetes.
The systolic blood pressure at inclusion of the patients was on average 138 mm Hg and thus the patients were normotensive at study start. After one month of therapy with either ramipril or placebo, the systolic blood pressure had decreased by 5.48 mm Hg and 1.59 mm Hg, respectively.
The primary endpoint of the study was myocardial infarction (MI), stroke and cardiovascular (CV) death (mortality).

CCOC(=O)[C@H](CCc1ccccc1)N[C@@H](C)C(=O)N1[C@H](C(=O)O)C[C@@H]2CCC[C@@H]21 [ramipril]
decrease in systolic blood pressure (after one month of therapy, normotensive patients, on average 138 mm Hg at inclusion): 5.48 mm Hg
reduction in the need for revascularisation procedures and diabetic complications (patients taking ramipril versus placebo): between a fourth and a fifth
reduction in the combined endpoint of cardiovascular deaths, heart attacks and strokes (patients taking ramipril, study stopped early): very clear reduction
reduction in the number of patients who developed diabetes (ramipril group versus placebo): 36%
reduction in the number of patients who developed CHF (ramipril group versus placebo, no signs or symptoms of CHF at study start): 21%
reduction in the number of patients who developed a stroke (ramipril group versus placebo, patients normotensive when recruited): 32%
